Assay results: patent publication US20240252508A1, “Novel glucose uptake inhibitors for use in the treatment of cancer” (NOVELYEAST BV, priority 2021, published 2024)
“Also recorded” adds a separate entry of the source. Read-outs that look alike come from different tables or passages of the source.

Tests used:
[1] = system: A549 lung adenocarcinoma cells; test: A549 cell proliferation / growth inhibition; type: cell-based, human; details: 1 mM glucose; for Potency in reducing maximal growth rate of A549 cells: 6.25-50 μM
Outline: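 A549 growth screened in RPMI with 1 mM glucose, compounds at 50 μM; cell number from counts of Hoechst-stained nuclei after 3 days. Growth curves also followed by IncuCyte phase-contrast confluency over 3–5 days (1000–1500 cells/well), DMSO ≤0.1%, ≥4 technical repeats.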

[2] = system: A549 lung adenocarcinoma cells; test: 2-deoxyglucose uptake in A549 cells; type: cell-based, human; details: for Type of inhibition of 2-deoxyglucose uptake in A549 cells: Lineweaver-Burk plot analysis
Description: Zero-trans glucose uptake in A549 cells was approximated by measuring the uptake of [1,2-^3H]2-deoxyglucose. For this purpose, A549 cells were pregrown in RPMI medium containing 10 mM glucose in a 24-well plate to a cell density of around 100,000 cells/well. Prior to adding radioactive label, cells were gently washed twice in Krebs-Ringer-HEPES buffer (50 mM HEPES pH 7.4, 137 mM NaCl, 4.7 mM KCl, […], 1.3 mM MgSO4 and 0.1% w/v BSA) at 30° C. to remove any residual sugar. RPMI medium without sugar containing the compound intended for treatment, was added to the cells for 15 min at 37° C. to allow adequate interaction of the cells with the compound.
The uptake measurement was initiated by adding an equal volume of medium containing radiolabeled 2DG. After 3-4 min, medium was aspirated and cells were gently washed three times with ice-cold Krebs-Ringer-HEPES buffer. Cells were lysed by adding 200 μL of ice-cold 0.1 M NaOH solution and incubating the plate for 10 min at 37° C. Cell lysates were transferred to scintillation vials for subsequent scintillation counting. For blank measurements, cells were incubated with 50 μM Cytochalasin B prior to the uptake measurement.

[3] = system: MCF10A breast epithelia cell line transformed with the H-RAS^V12 allele; test: MCF10A H-RAS^V12 growth and apoptosis (IncuCyte); type: cell-based, human; details: 25 μM
Description: For both adherent A549 and MCF10Δ H-RAS^V12 cell lines, growth curves were established using the IncuCyte® ZOOM technology. By collecting phase contrast images, the IncuCyte® software provides a calculated confluency percentage from which growth curves can be deducted.
Cells were seeded at a density of 1000-1500 cells/well in a Nunc-Edge™ 96-well plate (Thermo Fisher Scientific) and growth was typically measured over 3 to 5 days. For the measurement of apoptosis induction using the MCF10Δ H-RAS^V12 cell line, the IncuCyte® Caspase-3/7 green dye was added to the medium in the recommended concentration at the beginning of the growth curve experiment. Apoptosis was detected by taking fluorescent images by excitation at 488 nm followed by IncuCyte® software analysis. Cell growth of the KMS-12-PE multiple myeloma cell line, which grows in suspension, was measured by manual cell counting. Cells were initially seeded at a density of 10^4 cells/well and incubated for 4 days after which the cell number was counted. For all cell lines, the same medium used for pregrowth was also used for the growth curve experiment, albeit with different glucose concentrations depending on the experimental design. With compound administration, the final concentration of DMSO never exceeded 0.1%. Typically, at least four technical repeats were included per condition.

[4] = system: U266 multiple myeloma cell line; test: U266 proliferation (cell count); type: cell-based, human; details: 25 μM, 4 days, RPMI with 1 mM glucose
Description: a. Cell count of the U266 multiple myeloma cell line after 4 days of growth on RPMI medium with 1 mM glucose. Cells were treated with either DMSO or 25 μM of WBC-A, -15C, -4C or -11C. Glucose consumption (b.) or lactate secretion (c.) rates are shown for U266 cells incubated in RPMI medium supplemented with 1 mM glucose for 8 h.

[5] = system: A549 lung adenocarcinoma cells; test: Steady-state glucose consumption and lactate production in A549 cells; type: cell-based, human; details: 25 μM, 1 mM glucose, 8 h
Description: (§1) The influence of WBC compounds on the steady-state glucose consumption rate was studied in the A549 adenocarcinoma and KMS-12-PE multiple myeloma cell lines. As such, different parameters needed to be optimized depending on whether cells were adherent or in suspension. As such, A549 cells were incubated at 125,000 cells/well in a 24-well plate in 300 μL RPMI medium for 8 h. For the KMS-12-PE cell line, 100,000 cells/well were incubated in 100 μL RPMI medium in a 96-well plate for 8 h. Medium was collected, spun down and HPLC-analyzed for measuring glucose and lactate levels. Metabolite levels were corrected for cell number, which always varied little over the span of 8 h. For every condition, at least 4 technical repeats were included.

[6] = system: KMS-12-PE multiple myeloma cells; test: Steady-state glucose consumption and lactate production in KMS-12-PE cells; type: cell-based, human; details: 25 μM, 1 mM glucose, 8 h
Description: as §1

[7] = Warbicin toxicity and tolerability in mice; type: in vivo, NMRI-nu mice; details: for Loss in body weight over 20 days: daily i.p. 5, 10 and 20 mg/kg, nude mice; for AST/ALT ratio vs vehicle: sera after 20 days, 5, 10, 20 mg/kg i.p.; for Blood glucose level vs vehicle: sera post mortem after 20 days, 5, 10, 20 mg/kg i.p.
Description: Warbicin in vivo toxicity and tolerability was examined by subjecting NMRI-nu mice to daily intraperitoneal injection of either WBC-A, WBC-15C, WBC-4C or WBC-11C. Compounds were dosed at either 5 mg/kg, 10 mg/kg or 20 mg/kg over a period of 20 days. Three mice were used per condition. To evaluate toxicity, change in body weight was registered daily. As a humane endpoint, mice that lost more than 20% of their original body weight were prematurely sacrificed. An optimal dissolve strategy was developed to administer WBC compounds by intraperitoneal injection. Due to their considerable hydrophobicity, compounds were dissolved in a sterilized 1×PBS, 5% DMSO and 5% Tween-80 solution. For WBC-A, -15C and -4C, this gives an initial clear solution that gradually changes over time into a homogenous suspension which can still be administered in a reproducible way. For WBC-11C it immediately results in a homogenous suspension.

[8] = system: tps1Δ cells; test: Growth rescue of tps1Δ strain on glucose (growth curves, 2% galactose medium); type: cell-based, S. cerevisiae; details: 2.5 mM glucose
Outline: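 Growth at 30 °C was tracked by OD595 readings every 30 min, with at least triplicate technical wells. Cells came from 2% galactose synthetic precultures, were washed and set to OD 0.1, and received compound 10 min ahead of the glucose addition.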

[9] = system: tps1Δ cells; test: Zero-trans glucose uptake in tps1Δ yeast cells; type: cell-based, S. cerevisiae; details: 2.5 mM glucose, tps1Δ cells
Description: Zero-trans uptake of radioactively labeled [U-^14C]glucose, [U-^14C]fructose or [U-^14C]galactose by S. cerevisiae cells was determined in accordance with previous studies^44,66. Cells were grown on different carbon sources depending on the experiment. For measuring glucose uptake activity in the tps1Δ and tps1Δ hxtA strains (FIG. 1b,c), cells were grown on YP medium containing 3% glycerol (measurement of 10s). Typically, for compound characterization and kinetic studies in wild type and tps1Δ strains, cells were (pre)grown on Complete Synthetic medium supplemented with 2% galactose (measurement of 10s). In the experiments on the influence of hexokinase activity on the sugar uptake rate, the measurement duration was shortened to 5s and cells were always grown on YP medium containing 3% glycerol and 2% ethanol. After harvesting, cells were washed twice with ice-cold 25 mM MES-buffer pH 6, and resuspended in their respective medium without sugar to a final concentration of 45 mg (wet weight)/mL. The amount of added tracer was estimated to give a response close to at least 1000 counts per min in order to adequately counter background noise. Cells were first preincubated for 10 min at 30° C. with the compound to acclimate the cells to the temperature and to allow adequate interaction with the compound prior to uptake. Next, hexose sugar was mixed with the cell suspension, which was then incubated for 5 or 10 s, depending on the experiment, after which the cells were rapidly filtered over a glass microfiber filter (Whatman GF/C) and washed three times with ice-cold dH2O. The loaded filter was transferred to a scintillation vial containing 3 mL liquid scintillation cocktail (Ultima-Flo M, Perkin Elmer) and counted using the Hidex 300 SL. Three blank measurements per strain were typically included to account for background signal, for which the cells were first quenched before adding the radioactive label.

Row | Compound | Potency in reducing maximal growth rate of A549 cells [1] | Ki ([2]; Dixon plot analysis, read-out: Ki (=K′i), 2-deoxyglucose uptake in A549 cells) [µM] | Type of inhibition of 2-deoxyglucose uptake in A549 cells [2] | Proliferation of MCF10A H-RAS^V12 cell line on 1 mM glucose [3] | Proliferation of U266 cell line [4] | Glucose consumption and lactate production in A549 cells [5] | Glucose consumption and lactate production in KMS-12-PE cells [6] | Weight loss of one single mouse sacrificed at day 19 ([7]; daily i.p. 20 mg/kg) [%] | Other abnormalities at autopsy ([7]; daily i.p. 5, 10, 20 mg/kg, 20 days) | Loss in body weight over 20 days [7] | AST/ALT ratio vs vehicle [7] | Blood glucose level vs vehicle [7] | Growth inhibition of A549 cells at the highest concentration ([1]; 50 μM) | Toxic effects in organs at autopsy, 20 mg/kg ([7]; daily i.p. 20 mg/kg, not observed at lower concentrations) | Minimal rescue concentration for growth of tps1Δ cells on 2.5 mM glucose [8] [µM] | IC50 [9] [µM] | Ki ([2]; Cornish-Bowden plot analysis, printed K′, read-out: K′i, 2-deoxyglucose uptake in A549 cells) [µM] | Induction of apoptosis (caspase 3/7 dye) in MCF10A H-RAS^V12 cells ([3]; 1 mM glucose) | Body weight drop at 10 and 5 mg/kg around day 5 and 11 ([7]; daily i.p. 10 and 5 mg/kg) | Toxic effects in organs at autopsy, 20 and 10 mg/kg ([7]; daily i.p. 20 and 10 mg/kg, not observed at lower concentrations)
1 | Cc1nc(NCC(=O)NCc2ccco2)c2c(-c3ccccc3)csc2n1 [WBC-4C] | intermediate potency | 26.8 | noncompetitive | highest potency | inhibit proliferation | inhibited | inhibited | 20 | No other abnormalities | no significant loss in body weight; also recorded: No significant difference | No significant difference | No significant difference | – | – | – | – | – | – | – | –
2 | Cc1nc(NCC(=O)Nc2ccccc2Br)c2c(-c3cccs3)csc2n1 [WBC-15C] | least potent | – | competitive | – | inhibit proliferation | inhibited | inhibited | – | – | no significant loss in body weight; also recorded: No significant difference | No significant difference | No significant difference | failed to cause complete inhibition | toxic effects were seen in the liver and other organs | – | – | – | – | – | –
3 | Cc1nc(SCC(=O)c2ccc3c(c2)NC(=O)CO3)c2c(-c3cccs3)csc2n1 [WBC-11C] | most | – | uncompetitive | highest potency | inhibit proliferation | inhibited | inhibited | – | – | no significant loss in body weight; also recorded: No significant difference | No significant difference | No significant difference | – | – | 50 | 44 | 7.53 | strong induction of apoptosis | small transient drop | toxic effects were seen in the liver and other organs
